Reference: US20250368633A1, “AZEPINE FUSED RING COMPOUND AS RIPK1 INHIBITOR AND USE THEREOF” (ARTIVILA BIOPHARMA, priority 2022, published 2025)

System: U937 cells
Assay: EC50 of necroptosis inhibition in U937 cells (TSZ-induced, CellTiter-Glo)
Format: cell-based
Details: Homo sapiens, U-937; TSZ (hTNF-α, SM-164, Z-VAD-FMK) 20 hours; 10 concentration points; read-out: EC50 intervals of necroptosis inhibition in U937 cells
Summary of the method: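 U937 cells pretreated 15 min with compound (10-point, 1:3 series), then necroptosis induced by TSZ (hTNF-α, SM-164, Z-VAD-FMK) for 20 h at 37 °C. Viability measured as ATP by CellTiter-Glo luminescence; inhibition normalised to untreated and TSZ-only wells, EC50 from four-parameter fit.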

| SMILES | EC50 [µM] |
| --- | --- |
| CN1C(=O)[C@@H](NC(=O)C(=O)NCCc2cccc(F)c2)COc2ccc(C#CCN3CC[C@H](O)C3)cc21 [Example 115, N^1-(3-fluorophenethyl)-N^2-((S)-7-(3-((S)-3-hydroxypyrrolidin-1-yl)prop-1-yn-1-yl)-5-methyl-4-oxo-2,3,4,5-tetrahydrobenzo[b][1,4]oxazepin-3-yl)oxalamide] | < 0.1 |
| CN1C(=O)[C@@H](NC(=O)C(=O)NCCc2cccc(F)c2)COc2ccc(C#Cc3cccnc3)cc21 [Example 117, (S)—N^1-(3-fluorophenethyl)-N^2-(5-methyl-4-oxo-7-(pyridin-3-ylethynyl)-2,3,4,5-tetrahydrobenzo[b][1,4]oxazepin-3-yl)oxalamide] | < 0.1 |
| CN1C(=O)[C@@H](NC(=O)C(=O)NCCc2cccc(F)c2)COc2ccc(C#CCN3CCC(=O)CC3)cc21 [Example 118, (S)—N^1-(3-fluorophenethyl)-N^2-(5-methyl-4-oxo-7-(3-(4-oxopiperidin-1-yl)prop-1-yn-1-yl)-2,3,4,5-tetrahydrobenzo[b][1,4]oxazepin-3-yl)oxalamide] | < 0.1 |
| CN1C(=O)[C@@H](NC(=O)C(=O)NCCc2cccc(F)c2)COc2ccc(C#CCN3CCOCC3)cc21 [Example 120, (S)—N^1-(3-fluorophenethyl)-N^2-(5-methyl-7-(3-morpholinoprop-1-yn-1-yl)-4-oxo-2,3,4,5-tetrahydrobenzo[b][1,4]oxazepin-3-yl)oxalamide] | < 0.1 |
| CN1C(=O)[C@@H](NC(=O)C(=O)NCCc2cccc(F)c2)COc2ccc(C#CCN3C(=O)CCC3=O)cc21 [Example 122, (S)—N^1-(7-(3-(2,5-dioxopyrrolidin-1-yl)prop-1-yn-1-yl)-5-methyl-4-oxo-2,3,4,5-tetrahydrobenzo[b][1,4]oxazepin-3-yl)-N^2-(3-fluorophenethyl)oxalamide] | < 0.1 |
| CN1C(=O)[C@@H](NC(=O)C(=O)NCCc2cccc(F)c2)COc2ccc(C#CCN3CCNC(=O)C3)cc21 [Example 123, (S)—N^1-(3-fluorophenethyl)-N^2-(5-methyl-4-oxo-7-(3-(3-oxopiperazin-1-yl)prop-1-yn-1-yl)-2,3,4,5-tetrahydrobenzo[b][1,4]oxazepin-3-yl)oxalamide] | < 0.1 |
| C[C@@H](NC(=O)C(=O)N[C@H]1COc2ccc(C#CCN3CC[C@@H](O)C3)cc2N(C)C1=O)c1ccccc1 [Example 128, N^1-((S)-7-(3-((R)-3-hydroxypyrrolidin-1-yl)prop-1-yn-1-yl)-5-methyl-4-oxo-2,3,4,5-tetrahydrobenzo[b][1,4]oxazepin-3-yl)-N^2-((R)-1-phenylethyl)oxalamide] | < 0.1 |
| C[C@@H](NC(=O)C(=O)N[C@H]1COc2ccc(C#CCN3CC[C@H](O)C3)cc2N(C)C1=O)c1ccccc1 [Example 130, N^1-((S)-7-(3-((S)-3-hydroxypyrrolidin-1-yl)prop-1-yn-1-yl)-5-methyl-4-oxo-2,3,4,5-tetrahydrobenzo[b][1,4]oxazepin-3-yl)-N^2-((R)-1-phenylethyl)oxalamide] | < 0.1 |
| C[C@@H](NC(=O)C(=O)N[C@H]1COc2ccc(C#CC3(O)COC3)cc2N(C)C1=O)c1ccccc1 [Example 132, N^1-((S)-7-((3-hydroxyoxetan-3-yl)ethynyl)-5-methyl-4-oxo-2,3,4,5-tetrahydrobenzo[b][1,4]oxazepin-3-yl)-N^2-((R)-1-phenylethyl)oxalamide] | < 0.1 |
| C[C@@H](NC(=O)C(=O)N[C@H]1COc2ccc(C#CC3CCN(CC#N)CC3)cc2N(C)C1=O)c1ccccc1 [Example 137, N^1-((S)-7-((1-(cyanomethyl)piperidin-4-yl)ethynyl)-5-methyl-4-oxo-2,3,4,5-tetrahydrobenzo[b][1, 4]oxazepin-3-yl)-N^2-((R)-1-phenylethyl)oxalamide] | < 0.1 |
| C[C@@H](NC(=O)C(=O)N[C@H]1COc2ccc(C#CCN3CCC(O)CC3)cc2N(C)C1=O)c1ccccc1 [Example 138, N^1-((S)-7-(3-(4-hydroxypiperidin-1-yl)prop-1-yn-1-yl)-5-methyl-4-oxo-2,3,4,5-tetrahydrobenzo[b][1,4]oxazepin-3-yl)-N^2-((R)-1-phenylethyl)oxalamide] | < 0.1 |
